Laboratory results taken from article PMC7934444, “A bifunctional enzyme belonging to cytochrome P450 family involved in the O-dealkylation and N-dealkoxymethylation toward chloroacetanilide herbicides in Rhodococcus sp. B2” (Microbial Cell Factories, 2021).

Molecular target: T1, EthABDB2 (EthAB2 + EthBB2 + EthDB2) (Rhodococcus sp. B2, UniProt A0A8A6W4L4)
T1 construct: gene ethB; 43 kDa (EthA), 44 kDa (EthB), 10 kDa (EthD); mixed in vitro; EthB has ten residue differences from EthB of strain T3-1; with Ferredoxin reductase EthA; EthD protein (10 kDa; unknown function, acts as ferredoxin)
Experiment: reconstituted enzyme assay, HPLC substrate loss; GC-MS of product CMEPA
Format: biochemical
Details: 0.5 mM substrate; 1 mM NADH, 0.5 mM Fe2+, 1 mM MgCl2, 20 mM Tris-HCl pH 7.5, 30 °C; N-dealkoxymethylation

T1 sequence (A0A8A6W625 entry or part of it): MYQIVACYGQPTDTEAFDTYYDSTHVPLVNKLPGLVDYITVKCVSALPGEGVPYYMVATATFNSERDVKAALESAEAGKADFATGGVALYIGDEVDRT
T1 sequence (A0A8A6W4L4 entry or part of it): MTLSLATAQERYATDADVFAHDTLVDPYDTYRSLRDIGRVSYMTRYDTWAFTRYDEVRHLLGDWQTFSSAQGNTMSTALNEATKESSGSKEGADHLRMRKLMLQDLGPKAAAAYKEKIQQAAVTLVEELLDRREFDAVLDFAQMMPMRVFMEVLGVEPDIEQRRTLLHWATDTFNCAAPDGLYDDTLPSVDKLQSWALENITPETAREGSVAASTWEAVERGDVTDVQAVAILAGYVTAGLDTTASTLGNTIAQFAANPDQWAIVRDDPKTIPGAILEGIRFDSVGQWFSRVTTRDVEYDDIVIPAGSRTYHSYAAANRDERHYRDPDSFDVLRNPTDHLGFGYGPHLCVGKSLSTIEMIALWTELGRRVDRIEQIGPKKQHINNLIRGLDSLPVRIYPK
T1 sequence (A0A8A6W576 entry or part of it, further chain): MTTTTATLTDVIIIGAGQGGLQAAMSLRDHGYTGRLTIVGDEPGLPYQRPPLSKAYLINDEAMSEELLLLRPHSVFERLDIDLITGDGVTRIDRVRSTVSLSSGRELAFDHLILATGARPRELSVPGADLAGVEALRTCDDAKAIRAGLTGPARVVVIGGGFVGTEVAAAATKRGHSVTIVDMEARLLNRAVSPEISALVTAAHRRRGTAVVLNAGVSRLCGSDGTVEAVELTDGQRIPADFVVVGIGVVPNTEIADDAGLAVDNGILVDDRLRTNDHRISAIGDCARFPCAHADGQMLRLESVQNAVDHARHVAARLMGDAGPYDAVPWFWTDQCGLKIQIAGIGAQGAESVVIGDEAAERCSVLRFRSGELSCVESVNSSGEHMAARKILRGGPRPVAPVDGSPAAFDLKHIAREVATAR

Question: CCc1cccc(C)c1N(COC(C)C)C(=O)CCl [propisochlor] was tested. Which “reconstituted enzyme assay, HPLC substrate loss; GC-MS of product CMEPA” value did it give?
Answer: EthABDB2 performed N-dealkoxymethylation to acetochlor, alachlor, propisochlor and butachlor, O-dealkylation to pretilachlor
